Patent publication US8338619B2, “Crystalline form of the zoledronic acid, a process to obtain it and the pharmaceutical composition comprising it” (Gador S.A., priority 2005, dated 2012)

Experiment: TGA Kinetics Analysis of dehydration (constant heating rate thermogravimetry, ASTM E1641)
Format: physicochemical
Procedure: In this Example, thermogravimetric analysis (TGA) is used as an analytical methodology to quantify the thermal stability parameters of solid chemicals. The data generated from these measurements is analyzed to obtain Arrhenius kinetic parameters such us activation energy (Ea) and preexponential factor. The activation energies of two different hydrates—zoledronic acid monohydrate and trihydrate—is obtained to analyze the dehydration reaction of these two forms to anhydrous form so that the their relative solid-state thermal stability can be ranked based on their activation energy values.
Thermogravimetric analysis (TGA) is a thermal analysis technique which measures the amount and rate of change on the weight of a material as a function of temperature or time in a controlled atmosphere. TGA measurements are used primarily to determinate the composition of materials and to predict their thermal stability up to elevate temperatures. However, with proper experimental procedures, additional information about the kinetics of decomposition and in-use lifetime predictions can be obtained.
TGA Kinetics Analysis method covers determination of the kinetic parameters, Arrhenius activation energy preexponential factor by thermogravimetry, based on the assumption that the decomposition to obeys first-order kinetics.
This program utilizes data gathered by running a sample at various heating rates. […]

| Compound | solid-state kinetic thermal stability (relative ranking from activation energy) (trihydrate vs monohydrate) | Activation energy (dehydration to anhydrous form) (at 50.0 percent of conversion level, TGA at 5, 10 and 20° C./min from 25 to 200° C., dry nitrogen purge, Monohydrate) [kcal/mol] |
| --- | --- | --- |
| O=P(O)(O)C(O)(Cn1ccnc1)P(=O)(O)O [Zoledronic acid trihydrate, Zoledronic Acid Trihydrate] | greater than monohydrate form |  |
| O=P(O)(O)C(O)(Cn1ccnc1)P(=O)(O)O [Zoledronic acid monohydrate, Zoledronic Acid Monohydrate] |  | 36.33 |
